Experiments:
[1] = target: VMAT2 (human platelet homogenate) (Homo sapiens (Human), UniProt Q05940); assay: Human VMAT2 Ki, slightly modified competition binding procedure (Table 11); settings: 10 nM 3H-dihydrotetrabenazine;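 note: competition binding with 90 min incubation at 25 °C, after which filter-retained radioligand was measured by scintillation counting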
Procedure: Following incubation at 25° C. for 90 minutes, bound radioligand was collected by rapid filtration onto GF/B glass fiber filters using a Unifilter-96 Harvester (PerkinElmer). Filter plates were pre-treated with 0.1% polyethylenimine and allowed to dry overnight, and following harvesting the filter plates were washed with 800 d VMAT2 binding buffer. Bound radioligand was quantified by scintillation counting using a Topcount NXT (PerkinElmer).

[2] = In vitro human intestinal S9 hydrolysis assay (formation of compound 1-1); settings: human intestinal S9, 1 uM, 37° C., up to 60 minutes

VMAT2 (human platelet homogenate), sequence (Q05940 whole entry): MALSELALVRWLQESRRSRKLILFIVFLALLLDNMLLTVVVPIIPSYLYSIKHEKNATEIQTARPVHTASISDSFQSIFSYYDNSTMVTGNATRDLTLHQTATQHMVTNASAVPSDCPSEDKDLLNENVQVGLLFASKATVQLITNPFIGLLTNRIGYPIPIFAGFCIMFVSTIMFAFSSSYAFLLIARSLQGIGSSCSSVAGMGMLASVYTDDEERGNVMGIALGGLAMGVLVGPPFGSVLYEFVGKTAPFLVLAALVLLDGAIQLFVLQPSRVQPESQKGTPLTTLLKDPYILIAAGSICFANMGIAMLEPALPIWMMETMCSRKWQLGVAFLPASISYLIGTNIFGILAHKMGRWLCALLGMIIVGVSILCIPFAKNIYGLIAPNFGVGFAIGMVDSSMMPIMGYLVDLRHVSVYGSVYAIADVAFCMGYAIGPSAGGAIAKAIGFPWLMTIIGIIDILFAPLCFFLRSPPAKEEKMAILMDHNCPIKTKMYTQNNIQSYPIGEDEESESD

Compound | Ki [1] [nM] | S9 Assay (ability to form compound 1-1) [2]
COc1cc2c(cc1OC)[C@H]1C[C@@H](COC(=O)N3CCC(C(=O)O)CC3)[C@H](CC(C)C)CN1CC2 [Compound 5-52, 1-({[(2R,3S,11bR)-9,10-dimethoxy-3-(2-methylpropyl)-1H,2H,3H,4H,6H,7H,11bH-pyrido[2,1-a]isoquinolin-2-yl]methoxy}carbonyl)piperidine-4-carboxylic acid] | > 500 | +
COc1cc2c(cc1OC)[C@H]1C[C@@H](COC(=O)N3CCC(C(=O)O)C3)[C@H](CC(C)C)CN1CC2 (stereo partly drawn) [Compound 5-49, 1-({[(2R,3S,11bR)-9,10-dimethoxy-3-(2-methylpropyl)-1H,2H,3H,4H,6H,7H,11bH-pyrido[2,1-a]isoquinolin-2-yl]methoxy}carbonyl)pyrrolidine-3-carboxylic acid] | 10 to 500 | +
COc1cc2c(cc1OC)[C@H]1C[C@@H](COC(=O)NC[C@@H](CC(=O)O)CC(C)C)[C@H](CC(C)C)CN1CC2 [Compound 5-19, (3R)-3-{[({[(2R,3S,11bR)-9,10-dimethoxy-3-(2-methylpropyl)-1H,2H,3H,4H,6H,7H,11bH-pyrido[2,1-a]isoquinolin-2-yl]methoxy}carbonyl)amino]methyl}-5-methylhexanoic acid] | 10 to 500 | +
COc1cc2c(cc1OC)[C@H]1C[C@@H](COC(=O)C3CC3C(=O)O)[C@H](CC(C)C)CN1CC2 (stereo partly drawn) [Compound 3-4, 2-({[(2R,3S,11bR)-9,10-dimethoxy-3-(2-methylpropyl)-1H,2H,3H,4H,6H,7H,11bH-pyrido[2,1-a]isoquinolin-2-yl]methoxy}carbonyl)cyclopropane-1-carboxylic acid] | 10 to 500 | ++
COc1cc2c(cc1OC)[C@H]1C[C@@H](COC(=O)CCCC(=O)O)[C@H](CC(C)C)CN1CC2 [Compound 3-8, 5-{[(2R,3S,11bR)-9,10-dimethoxy-3-(2-methylpropyl)-1H,2H,3H,4H,6H,7H,11 bH-pyrido[2,1 a]isoquinolin-2-yl]methoxy}-5-oxopentanoic acid] | 10 to 500 | +++
COc1cc2c(cc1OC)[C@H]1C[C@@H](COC(=O)NC3(C(=O)O)CCCCC3)[C@H](CC(C)C)CN1CC2 [Compound 5-23, l-[({[(2R,3S,11bR)-9,10-dimethoxy-3-(2-methylpropyl)-1H,2H,3H,4H,6H,7H,11bH-pyrido[2,1-a]isoquinolin-2-yl]methoxy}carbonyl)amino]cyclohexane-1-carboxylic acid] | 10 to 500 | ++
COc1cc2c(cc1OC)[C@H]1C[C@@H](COC(=O)C3CCCCC3C(=O)O)[C@H](CC(C)C)CN1CC2 (stereo partly drawn) [Compound 3-6, 2-({[(2R,3S,11bR)-9,10-dimethoxy-3-(2-methylpropyl)-1H,2H,3H,4H,6H,7H,11bH-pyrido[2,1-a]isoquinolin-2-yl]methoxy}carbonyl)cyclohexane-1-carboxylic acid] | 10 to 500 | ++
COc1cc2c(cc1OC)[C@H]1C[C@@H](COC(=O)C3CCN(C)CC3)[C@H](CC(C)C)CN1CC2 [Compound 2-25, [(2R,3S,11bR)-9,10-dimethoxy-3-(2-methylpropyl)-1H,2H,3H,4H,6H,7H,11bH-pyrido[2,1-a]isoquinolin-2-yl]methyl 1-methylpiperidine-4-carboxylate] | < 10 | +++
COc1cc2c(cc1OC)[C@H]1C[C@@H](COC(=O)CCCN)[C@H](CC(C)C)CN1CC2 [Compound 4-31, [(2R,3S,11bR)-9,10-dimethoxy-3-(2-methylpropyl)-1H,2H,3H,4H,6H,7H,11bH-pyrido[2,1-a]isoquinolin-2-yl]methyl 4-aminobutanoate] | < 10 | ++
COc1cc2c(cc1OC)[C@H]1C[C@@H](COC(=O)CC3CCN(C)C3)[C@H](CC(C)C)CN1CC2 (stereo partly drawn) [Compound 2-10, [(2R,3S,11bR)-9,10-dimethoxy-3-(2-methylpropyl)-1H,2H,3H,4H,6H,7H,11bH-pyrido[2,1-a]isoquinolin-2-yl]methyl 2-(1-methylpyrrolidin-3-yl)acetate] | < 10 | +++

Results, then the compound that gave them:

Ki [1] [nM] | S9 Assay (ability to form compound 1-1) [2] | Compound
< 10 | + | COc1cc2c(cc1OC)[C@H]1C[C@@H](COC(=O)CC3CCNC3)[C@H](CC(C)C)CN1CC2 (stereo partly drawn) [Compound 4-16, [(2R,3S,11bR)-9,10-dimethoxy-3-(2-methylpropyl)-1H,2H,3H,4H,6H,7H,11bH-pyrido[2,1-a]isoquinolin-2-yl]methyl 2-(pyrrolidin-3-yl)acetate]
< 10 | + | COc1cc2c(cc1OC)[C@H]1C[C@@H](COC(=O)N3CCNC[C@@H]3CO)[C@H](CC(C)C)CN1CC2 [Compound 6-7, [(2R,3S,11bR)-9,10-dimethoxy-3-(2-methylpropyl)-1H,2H,3H,4H,6H,7H,11bH-pyrido[2,1-a]isoquinolin-2-yl]methyl (2R)-2-(hydroxymethyl)piperazine-1-carboxylate]
< 10 | ++ | COc1cc2c(cc1OC)[C@H]1C[C@@H](COC(=O)C3CCNC3)[C@H](CC(C)C)CN1CC2 (stereo partly drawn) [Compound 4-8, [(2R,3S,11bR)-9,10-dimethoxy-3-(2-methylpropyl)-1H,2H,3H,4H,6H,7H,11bH-pyrido[2,1-a]isoquinolin-2-yl]methyl pyrrolidine-3-carboxylate]
< 10 | + | COc1cc2c(cc1OC)[C@H]1C[C@@H](COC(=O)N3CCOC(CN(C)C)C3)[C@H](CC(C)C)CN1CC2 (stereo partly drawn) [Compound 5-4, [(2R,3S,11bR)-9,10-dimethoxy-3-(2-methylpropyl)-1H,2H,3H,4H,6H,7H,11bH-pyrido[2,1-a]isoquinolin-2-yl]methyl 2-[(dimethylamino)methyl]morpholine-4-carboxylate]
< 10 | ++ | COc1cc2c(cc1OC)[C@H]1C[C@@H](COC(=O)[C@@H]3CCNC3)[C@H](CC(C)C)CN1CC2 [Compound 4-26, [(2R,3S,11bR)-9,10-dimethoxy-3-(2-methylpropyl)-1H,2H,3H,4H,6H,7H,11bH-pyrido[2,1-a]isoquinolin-2-yl]methyl (3R)-pyrrolidine-3-carboxylate]
< 10 | +++ | COc1cc2c(cc1OC)[C@H]1C[C@@H](COC(=O)[C@@H]3CCCNC3)[C@H](CC(C)C)CN1CC2 [Compound 4-29, [(2R,3S,11bR)-9,10-dimethoxy-3-(2-methylpropyl)-1H,2H,3H,4H,6H,7H,11bH-pyrido[2,1-a]isoquinolin-2-yl]methyl (3R)-piperidine-3-carboxylate]
< 10 | ++ | COc1cc2c(cc1OC)[C@H]1C[C@@H](COC(=O)C3CCNCC3)[C@H](CC(C)C)CN1CC2 [Compound 4-1, [(2R,3S,11bR)-9,10-dimethoxy-3-(2-methylpropyl)-1H,2H,3H,4H,6H,7H,11bH-pyrido[2,1-a]isoquinolin-2-yl]methyl piperidine-4-carboxylate]
< 10 | +++ | COc1cc2c(cc1OC)[C@H]1C[C@@H](COC(=O)[C@H]3CCCNC3)[C@H](CC(C)C)CN1CC2 [Compound 4-13, [(2R,3S,11bR)-9,10-dimethoxy-3-(2-methylpropyl)-1H,2H,3H,4H,6H,7H,11bH-pyrido[2,1-a]isoquinolin-2-yl]methyl (3S)-piperidine-3-carboxylate]

— US11053242B2, “[9,10-dimethoxy-3-(2-methylpropyl)-1H,2H,3H,4H,6H,7H,11BH-pyrido-[2,1-a]isoquinolin-2-yl]methanol and compounds, compositions and methods relating thereto” (Neurocrine Biosciences, Inc., priority 2015, dated 2021)
